A word on the IC50: it is the concentration at which inhibition is half-maximal. A word on the solubility: it is the dissolved amount per volume that the medium holds.

SMILES strings stand for the structures. Converted amounts (≈) assume the structure as drawn.

For one data set, the system named is J774 macrophages. Put plainly: Resazurin Macrophage J774 Viability Assay. In kind it is cell-based. To be noted: Mus musculus, 6 point concentration range 10 μM to 10 nM, n = 3 replicates, mean of 2 independent experiments, 72 hour incubation, read-out: IC50 (1). The protocol:
Potency was assessed using a viability assay based on the survival of the J774 macrophage cell line. Macrophages are closely related to osteoclasts and have been used previously as a model system for osteoclast survival (see, e.g., Luckman et al., 1998, “Heterocycle-containing bisphosphonates cause apoptosis and inhibit bone resorption by preventing protein prenylation: evidence from structure-activity relationships in J774 macrophages,” J. Bone Miner. Res., Vol. 13, pp. 1668-1678). The model is indicative both of effects on bone protection in diseases such as osteoporosis, osteoarthritis and rheumatoid arthritis, and of effects on inflammation since, like osteoclasts, J774 macrophages are dependent for survival on continued NFκB activation.
In vitro potency of test compounds was determined by incubation with J774 macrophages and subsequent determination of cell viability using resazurin.
Resazurin is a redox dye commonly used as an indicator of viability in cultured cells (see, e.g., Anoopkumar-Dukie, 2005, British Journal of Radiology, Vol. 78, pp. 945-947). It is non-toxic to cells and stable in culture medium, allowing continuous measurement of cell proliferation in vitro as either a kinetic or endpoint assay. The assay is based on the ability of viable, metabolically-active cells to reduce resazurin (which is blue and non-fluorescent) to resorufin and dihydroresorufin (which are red and fluorescent) using electrons from reducing species, such as nicotinamide adenine dinucleotide (NADPH) and flavin adenine dinucleotide (FADH). This transformation, from oxidised form to reduced form, can be measured either colorimetrically or fluorometrically. Insults that impair cell viability and proliferation also affects the capacity of cells to reduce resazurin, and the rate of dye reduction is directly proportional to the number of viable cells present.
For fluorescence measurements, 530-560 nm excitation and 590 nm emission wavelengths are typically used. For colorimetric measurements, absorbance at 570 nm (reduced form) and 600 nm (oxidised form) is typically measured. A simple calculation is performed to determine the relative quantities of the two species: a high ratio of resorufin (the reduced form) to resazurin (the oxidised form) is an indicator that cells are proliferating and viable. A low ratio indicates cells that are quiescent or non-viable.
J774 cells were plated at 10^4 cells per well in 100 μL αMEM (α Modified Eagle Medium) in 96-well plates and allowed to adhere overnight. The following day, test compounds were prepared as 100 mM solutions in DMSO. These stock solutions were diluted in DMSO and then diluted 1000× in culture medium (αMEM) before being added directly to the wells so as to give the desired final compound concentration. After a 72 hour incubation at 37° C./5% CO2, resazurin (Alamar Blue, Biosource International) was added to each well (1:10 v/v, 10 μL). The plate was then incubated at 37° C. for 3 hours and fluorescence was measured at 590 nm, with a 25 nm bandwidth.
The average results for each test compound were expressed as a percent (%) of the average control value reflecting cell viability. The average values across the concentrations tested were then plotted and the IC50 for was calculated by fitting the data to a 4-parameter IC50 equation using software from Grafit (Erithacus Software). Each experiment was repeated twice and the data are presented as the mean IC50 from both experiments.
(In general: Resazurin is reduced to fluorescent resorufin, in cell work by metabolically active cells.)

Data set [1] can be described thus: Aqueous (FaSSIF) solubility. The class given is physicochemical. The conditions noted are these: fasted state simulated intestinal fluid (FaSSIF); for solubility at 16 h: kinetic from dmso stock, pH 6.5, three replicates, read-out: Solubility (1); for solubility: pH 6.8, two replicates, read-out: Solubility (2). The protocol: Solubility was measured by equilibration of the compound in fasted state simulated intestinal fluid (FaSSIF) and quantified by high-performance liquid chromatography (HPLC).
Aqueous solubility was measured by equilibration of compounds with fasted state simulated intestinal fluid (FaSSIF) and quantified spectrophotometrically.
FaSSIF was prepared as described below:
Preparation of blank FaSSIF: 0.21 g of sodium hydroxide (NaOH) pellets, 1.97 g of dihydrogen sodium phosphate (NaH2PO4.2H2O) and 3.09 g of sodium chloride (NaCl) were dissolved in 400 mL of deionised water. […]
Preparation of FaSSIF: 0.056 g of SIF Powder (containing sodium taurocholate and lecithin) (Phares AG) was dissolved in 25 mL of blank FaSSIF and stirred until the powder was completely dissolved. The solution was allowed to stand for 2 hours during which it became opalescent; it was used within 24 hours. The final solution composition was characterised as follows: • Sodium taurocholate: 3 mM • Lecithin: 0.75 mM • Osmolarity: 270±10 mOsmol • pH: 6.5
The optical density was measured at the end of the incubation period for test compounds and a reference used to determine solubility. In brief, two samples were prepared for each determination: a reference sample consisting of a stock solution of test compound in DMSO diluted in system solution (a phosphate free, low absorption buffer) and propanol; and a test sample (prepared in triplicate) consisting of 0.5 mL FaSSIF spiked with test compound at 0.2 mM. Each sample was incubated at room temperature for 16 hours with constant shaking at 250 rpm. At the end of the incubation period, 0.3 mL of each sample was filtered through a pION filter plate (PION, Woburn Mass.), diluted 1:1 with propanol and scanned using UV spectrophotometry at λmax ([…]) using a Spectra Max Plus—Version 2.1000 (Molecular Devices, Sunnyvale, Calif.), with μSOL Explorer solubility determination software (pION, Woburn, Mass.).
FaSSIF solubility was calculated using the following formula:
[formula] wherein: • “OD” is the optical density; • “Cr” is the concentration of the reference (33.4 μM); and • “molecular weight” is for the test compound (e.g., 381.44 for ABD735).

Regarding `C[C@]1(O)CC[C@H](NS(=O)(=O)c2ccc(-c3c(F)cc(F)cc3F)cc2)CC1` [HMC-C-03-A, 2′,4′,6′-Trifluoro-N-((1r,4r)-4-hydroxy-4-methylcyclohexyl)biphenyl-4-sulfonamide], the IC50 with J774 macrophages was found to be 140 nM. The solubility at 16 h in data set [1] was 30 µg/mL (≈ 75.1 µM).
For the compound `C[C@]1(O)CC[C@@H](NS(=O)(=O)c2ccc(-c3ccc(F)cc3F)c(F)c2)CC1` [HMC-C-04-B, 2,2′,4′-Trifluoro-N-((1s,4s)-4-hydroxy-4-methylcyclohexyl)-[1,1′-biphenyl]-4-sulfonamide], the solubility in data set [1] is 130 µg/mL (≈ 325 µM).
As to `O=S(=O)(N[C@H]1CC[C@H](O)CC1)c1ccc(-c2ncc(Cl)cc2Cl)cc1` [ABD836, reference compound], in the data set with J774 macrophages, the IC50 is 280 nM. Besides, in data set [1], the solubility at 16 h was 30 µg/mL (≈ 74.8 µM).
Regarding `C[C@]1(O)CC[C@@H](NS(=O)(=O)c2ccc(-c3ncc(F)cc3F)c(F)c2)CC1` [HMC-N-01-B, 4-(3,5-Difluoropyridin-2-yl)-3-fluoro-N-((1s,4s)-4-hydroxy-4-methylcyclohexyl)benzenesulfonamide], in data set [1], the solubility is 120 µg/mL (≈ 300 µM).
Still for that read-out and setting: the same measure for `C[C@]1(O)CC[C@@H](NS(=O)(=O)c2ccc(-c3ccc(F)cc3C(F)(F)F)cc2)CC1` [HMC-C-02-B, 4′-Fluoro-N-((1s,4s)-4-hydroxy-4-methylcyclohexyl)-2′-(trifluoromethyl)-[1,1′-biphenyl]-4-sulfonamide]: 70 µg/mL (≈ 162 µM); for `C[C@]1(O)CC[C@@H](NS(=O)(=O)c2ccc(-c3c(F)cc(F)cc3F)cc2)CC1` [HMC-C-03-B, 2′,4′,6′-Trifluoro-N-((1s,4s)-4-hydroxy-4-methylcyclohexyl)-[1,1′-biphenyl]-4-sulfonamide]: 150 µg/mL (≈ 376 µM).
The same measure, in the same setting: the same measure for `C[C@]1(O)CC[C@@H](NS(=O)(=O)c2ccc(-c3ccc(Cl)cc3C#N)cc2)CC1` [HMC-C-01-B, 4′-Chloro-2′-cyano-N-((1s,4s)-4-hydroxy-4-methylcyclohexyl)-[1,1′-biphenyl]-4-sulfonamide]: 80 µg/mL (≈ 198 µM).
The same measure, in the same setting: the same measure for `C[C@]1(O)CC[C@@H](NS(=O)(=O)c2ccc(-c3ncc(Cl)cc3Cl)cc2)CC1` [HMC-N-03-B, 4-(3,5-Dichloropyridin-2-yl)-N-((1s,4s)-4-hydroxy-4-methylcyclohexyl)benzenesulfonamide]: 100 µg/mL (≈ 241 µM).
As for `C[C@]1(O)CC[C@H](NS(=O)(=O)c2ccc(-c3ccc(Cl)cc3C#N)cc2)CC1` [HMC-C-01-A, 4′-Chloro-2′-cyano-N-((1r,4r)-4-hydroxy-4-methylcyclohexyl)biphenyl-4-sulfonamide], the IC50 with J774 macrophages amounted to 130 nM. Besides, the solubility at 16 h in data set [1] was 60 µg/mL (≈ 148 µM).
The matching figures for `Cc1cc(S(=O)(=O)N[C@H]2CC[C@H](O)CC2)ccc1-c1ccc(F)cc1F` [ABD735]: 100 nM and 20 µg/mL (≈ 52.4 µM).
As for `C[C@]1(O)CC[C@H](NS(=O)(=O)c2ccc(-c3ccc(F)cc3F)cc2)CC1` [ABD900, reference compound], the IC50 in the data set on J774 macrophages was 560 nM. Moreover, the solubility in data set [1] is 120 µg/mL (≈ 315 µM).
With `C[C@]1(O)CC[C@H](NS(=O)(=O)c2ccc(-c3ncc(F)cc3F)cc2)CC1` [HMC-N-02-A, 4-(3,5-Difluoropyridin-2-yl)-N-((1r,4r)-4-hydroxy-4-methylcyclohexyl)benzenesulfonamide], the IC50 in the data set on J774 macrophages was 180 nM. Further, the solubility at 16 h in data set [1] is 20 µg/mL (≈ 52.3 µM).
The matching figures for `C[C@]1(O)CC[C@H](NS(=O)(=O)c2ccc(-c3ncc(F)cc3F)c(F)c2)CC1` [HMC-N-01-A, 4-(3,5-Difluoropyridin-2-yl)-3-fluoro-N-((1r,4r)-4-hydroxy-4-methylcyclohexyl)benzenesulfonamide]: 130 nM and 30 µg/mL (≈ 74.9 µM).
The matching figures for `C[C@]1(O)CC[C@H](NS(=O)(=O)c2ccc(-c3ncc(Cl)cc3Cl)cc2)CC1` [HMC-N-03-A, 4-(3,5-Dichloropyridin-2-yl)-N-((1r,4r)-4-hydroxy-4-methylcyclohexyl)benzenesulfonamide]: 170 nM and over 80 µg/mL.
For `Cc1cc(S(=O)(=O)NC2CCC(C)(O)CC2)ccc1-c1ccc(F)cc1F` (single isomer, unassigned) [REF001, reference compound], in the data set on J774 macrophages, the IC50 was 120 nM. In addition, the solubility at 16 h in data set [1] is 50 µg/mL (≈ 126 µM).
On to `C[C@]1(O)CC[C@@H](NS(=O)(=O)c2ccc(-c3ccc(F)cc3F)cc2)CC1` [ABD899, reference compound], for which, in the data set with J774 macrophages, the concentration for half-maximal inhibition (IC50) stood at 80 nM. Moreover, in data set [1], the solubility at 16 h was 60 µg/mL (≈ 157 µM) and the solubility is 130 µg/mL (≈ 341 µM).
Consider `C[C@]1(O)CC[C@@H](NS(=O)(=O)c2ccc(-c3ncc(F)cc3F)cc2)CC1` [HMC-N-02-B, 4-(3,5-Difluoropyridin-2-yl)-N-((1s,4s)-4-hydroxy-4-methylcyclohexyl)benzenesulfonamide], for which the solubility in data set [1] is 120 µg/mL (≈ 314 µM).
Consider `C[C@]1(O)CC[C@H](NS(=O)(=O)c2ccc(-c3ccc(F)cc3F)c(F)c2)CC1` [HMC-C-04-A, 2,2′,4′-Trifluoro-N-((1r,4r)-4-hydroxy-4-methylcyclohexyl)-[1,1′-biphenyl]-4-sulfonamide], for which the solubility in data set [1] is 80 µg/mL (≈ 200 µM).
In the case of `C[C@]1(O)CC[C@H](NS(=O)(=O)c2ccc(-c3ccc(F)cc3C(F)(F)F)cc2)CC1` [HMC-C-02-A, 4′-Fluoro-N-((1r,4r)-4-hydroxy-4-methylcyclohexyl)-2′-(trifluoromethyl)biphenyl-4-sulfonamide], the IC50 in the data set with J774 macrophages is 260 nM. Moreover, the solubility at 16 h in data set [1] is 40 µg/mL (≈ 92.7 µM).
Consider `C[C@]1(O)CC[C@H](NS(=O)(=O)c2ccc(-c3ncc(Cl)cc3Cl)c(F)c2)CC1` [HMC-N-04-A, 4-(3,5-Dichloropyridin-2-yl)-3-fluoro-N-((1r,4r)-4-hydroxy-4-methylcyclohexyl)benzenesulfonamide], for which the concentration for half-maximal inhibition (IC50) with J774 macrophages was determined as 180 nM. Further, the solubility at 16 h in data set [1] was 60 µg/mL (≈ 138 µM).

The record behind these values is patent US9624167B2, “N-(4-hydroxy-4-methyl-cyclohexyl)-4-phenyl-benzenesulfonamides and N-(4-hydroxy-4-methyl-cyclohexyl)-4-(2-pyridyl)benzenesulfonamides and their therapeutic use” (PIMCO 2664 LIMITED, priority 2013, dated 2017).
